The source of these data is patent US20070231288A1, “COSMETIC USE OF D-RIBOSE AND METHOD THEREOF” (LM Cosmetics, priority 2006, published 2007).

The structures appear in SMILES notation.

Assay [1] relates to normal human epidermal fibroblasts in culture. Briefly: Effect of D-ribose on in vitro production of ATP by skin cells under hypoxia. The format is cell-based. To be noted: 0.05% D-ribose, after 6 hours of severe hypoxia (oxygen <2%), 24 h pre-treatment. On the procedure: The inventors measured the effect of D-ribose on the production of ATP by the normal human epidermal fibroblasts in culture, under conditions of hypoxia. The cellules used are flask inoculations of normal human epidermal fibroblasts in DMEM medium with 10% FCS, incubation at 37° C., 5% CO2 and RH>95% up to 80% confluency. On Day 1, a first measurement of the level of ATP is taken on the untreated, unstressed NHDF. Pre-treatment for 24 hours with 0.05% of ribose versus an untreated control condition, 2 series in hexaplicate according to conditions. On Day 2, before the induction of hypoxia: stopping a series in order to measure the ATP level before hypoxia over all conditions (treated and untreated). The cells of the 2nd series were placed in suspension, the culture medium was renewed by DMEM 10% FCS supplemented with Hepes buffer (to maintain the pH at physiological conditions during hypoxia) and with EDTA (to prevent cell agglutination). The cells are placed in a incubator adjusted to 37° C., RH>95% the atmosphere of which has previously been replaced with nitrogen. Incubation for 6 hours under conditions of severe hypoxia (oxygen <2%) in the presence of 0.05% D-ribose versus an untreated control condition. Recovery of the cells and measurement of the quantity of ATP in the treated and untreated cells.

In assay [2] the test system is normal human dermal fibroblasts in culture (NHDF). Briefly: Effect of D-ribose on in vitro skin cell respiration (BD Oxygen Biosensor System). The format is cell-based. The following applies: 0.05% D-ribose, after 2 hours of contact. On the procedure:
The inventors measured the effect of D-ribose on the mitochondrial and cytosolic respiration of normal human dermal fibroblasts in culture (NHDF). The cells used are fibroblasts cultured at 37° C., 5% CO2, in DMEM medium, 10% FCS (foetal calf serum). The NHDF cultured in monolayer are placed in suspension and distributed in the wells of a special plate of the “BD Oxygen Biosensor System” kit. The bottom of the well is constituted by a membrane on which a molecule is grafted the fluorescence of which is inhibited by the oxygen dissolved in the incubation medium. The fluorescence increases in proportion to the oxygen consumed by the cells. 0.05% D-ribose is added in six wells. The intensity of fluorescence is measured in kinetic mode. The rate of respiration is calculated from measurements of the intensity of fluorescence.

On to `O=C[C@H](O)[C@H](O)[C@H](O)CO` [D-ribose], for which, in assay [1], the ATP level re-established was found to be 19%. In assay [2], the “increase in the cytosolic respiration” value is reported as 37% and the “increase in the mitochondrial respiration” value turned out to be 31%.
